One test deals with ENR+CD organoids. As to the kind of experiment: Primary screen: ATP (CellTiter-Glo 3D, CTG) cell number/viability, 2.5-D 384-well ENR+CD organoids.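 For all read-outs here: compounds given at plating and again on day 3 over a 6-day differentiation from ENR+CV stem-cell-enriched precursors, ATP measured on day 6, plate median as control.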 Particulars: primary screen; for Z.CTG: standard z score. (In general: In ATP-based viability assays light output follows the ATP content of the culture.)
The test system of test [1] is ENR+CD organoids (ISC to Paneth cell differentiation). As to the kind of experiment: Primary screen: basal (non-stimulated) lysozyme secretion LYZ.NS, 2.5-D 384-well ENR+CD organoid differentiation. The class given is cell-based, mouse. The text has this: (§1) High-throughput screening.
Test [2] has the same test system. Kind of test: Primary screen: CCh-stimulated lysozyme secretion LYZ.S, 2.5-D 384-well ENR+CD organoid differentiation. Conditions: primary screen. The class given is cell-based, mouse.
Description: as §1

The mark [3] stands for this setting: primary screen, standard z score, dose 0.08 uM.
[4] abbreviates: primary screen, standard z score, dose 0.40 uM.
Setting [5] is: primary screen, standard z score, dose 2.00 uM.
Setting [6] is: primary screen, standard z score, dose 10.00 uM.
[7] abbreviates: dose 0.08 uM, FC vs plate median.
[8] abbreviates: dose 0.40 uM, FC vs plate median.
Setting [9] is: dose 2.00 uM, FC vs plate median.
The mark [10] stands for this setting: dose 10.00 uM, FC vs plate median.
[11] abbreviates: primary screen, dose 0.08 uM, standard z score.
[12] abbreviates: primary screen, dose 0.40 uM, standard z score.
Where [13] appears, read: primary screen, dose 2.00 uM, standard z score.
Where [14] appears, read: primary screen, dose 10.00 uM, standard z score.
[15] abbreviates: primary screen; dose 0.08 uM; FC vs plate median.
The mark [16] stands for this setting: primary screen; dose 0.40 uM; FC vs plate median.
Where [17] appears, read: primary screen; dose 2.00 uM; FC vs plate median.
The mark [18] stands for this setting: primary screen; dose 10.00 uM; FC vs plate median.
The mark [19] stands for this setting: dose 0.08 uM, FC relative to plate median.
[20] abbreviates: dose 0.40 uM, FC relative to plate median.
[21] abbreviates: dose 2.00 uM, FC relative to plate median.
The mark [22] stands for this setting: dose 10.00 uM, FC relative to plate median.
Where [23] appears, read: primary screen, dose 0.08 uM, FC relative to plate median.
[24] abbreviates: primary screen, dose 0.40 uM, FC relative to plate median.
[25] abbreviates: primary screen, dose 2.00 uM, FC relative to plate median.
Where [26] appears, read: primary screen, dose 10.00 uM, FC relative to plate median.

Molecules are shown by their SMILES. Where a name gives a salt, the structure may show the parent alone.

For `O=c1oc2cc(O)ccc2s1` [Tioxolone], the Dose.FC.CTG is on record as 0.246 log2 fold change in the test with ENR+CD organoids (dose 0.08 uM), 0.089 log2 fold change in the test on ENR+CD organoids (dose 0.40 uM), 0.044 log2 fold change in the test on ENR+CD organoids (dose 2.00 uM) and 0.328 log2 fold change in the test with ENR+CD organoids (dose 10.00 uM). Further, the Dose.FC.LYZ.NS in test [1] (primary screen, dose 0.08 uM) was 0.099 log2 fold change; in test [1] (primary screen, dose 0.40 uM), 0.012 log2 fold change; in test [1] (primary screen, dose 2.00 uM), 0.053 log2 fold change; in test [1] (primary screen, dose 10.00 uM) it was 0.023 log2 fold change. Besides, the “Z.LYZ.NS (standard z score)” value in test [1] (primary screen, dose 0.08 uM) is 0.864; in test [1] (primary screen, dose 0.40 uM), 0.101; in test [1] (primary screen, dose 2.00 uM), 0.462; in test [1] (primary screen, dose 10.00 uM) it was 0.202. Further, the Dose.FC.LYZ.S is 0.149 log2 fold change in test [2] (dose 0.08 uM), 0.000 log2 fold change in test [2] (dose 0.40 uM), 0.023 log2 fold change in test [2] (dose 2.00 uM) and 0.028 log2 fold change in test [2] (dose 10.00 uM).
As for `COCCCC/C(=N\OCCN)c1ccc(C(F)(F)F)cc1` [Fluvoxamine maleate], the Dose.FC.CTG with ENR+CD organoids (dose 0.08 uM) is given as 0.115 log2 fold change; with ENR+CD organoids (dose 0.40 uM), 0.254 log2 fold change; with ENR+CD organoids (dose 2.00 uM), 0.211 log2 fold change; in the test with ENR+CD organoids (dose 10.00 uM) it was 0.138 log2 fold change. In addition, the Dose.FC.LYZ.NS in test [1] (primary screen, dose 0.08 uM) is 0.074 log2 fold change; in test [1] (primary screen, dose 0.40 uM), 0.087 log2 fold change; in test [1] (primary screen, dose 2.00 uM), 0.089 log2 fold change; in test [1] (primary screen, dose 10.00 uM) it was −0.027 log2 fold change. In addition, the Z.LYZ.NS in test [1] (setting [3]) is given as 0.642; in test [1] (setting [4]), 0.756; in test [1] (setting [5]), 0.778; in test [1] (setting [6]), −0.235. In addition, the Dose.FC.LYZ.S in test [2] (dose 0.08 uM) worked out at 0.114 log2 fold change; in test [2] (dose 0.40 uM) it was 0.172 log2 fold change; in test [2] (dose 2.00 uM) it was 0.108 log2 fold change; in test [2] (dose 10.00 uM), 0.012 log2 fold change.
As to `COc1ccc(-c2nc3ccc(C4=NNC(=O)CC4C)cc3[nH]2)cc1` (stereo not shown) [Pimobendan], the Dose.FC.CTG in the test on ENR+CD organoids (setting [7]) is listed as −0.022 log2 fold change; in the test with ENR+CD organoids (setting [8]), 0.193 log2 fold change; in the test with ENR+CD organoids (setting [9]), 0.206 log2 fold change; in the test with ENR+CD organoids (setting [10]), 0.139 log2 fold change. Also, the Z.LYZ.NS is listed as 0.328 in test [1] (setting [11]), 0.546 in test [1] (setting [12]), 1.121 in test [1] (setting [13]) and −0.577 in test [1] (setting [14]). Also, the Dose.FC.LYZ.NS in test [1] (setting [15]) is listed as 0.038 log2 fold change; in test [1] (setting [16]) it was 0.063 log2 fold change; in test [1] (setting [17]) it was 0.129 log2 fold change; in test [1] (setting [18]), −0.066 log2 fold change. The Dose.FC.LYZ.S in test [2] (setting [7]) is given as 0.129 log2 fold change; in test [2] (setting [8]) it was 0.051 log2 fold change; in test [2] (setting [9]), 0.194 log2 fold change; in test [2] (setting [10]), −0.134 log2 fold change.
With `CC(C)C[C@H](NC(=O)[C@@H](NC(=O)c1cccc(-c2ccccc2)n1)[C@@H](C)O)B(O)O` [CEP-18770 (Delanzomib)], the Dose.FC.CTG with ENR+CD organoids (dose 0.08 uM) is −0.953 log2 fold change; with ENR+CD organoids (dose 0.40 uM), −1.642 log2 fold change; in the test with ENR+CD organoids (dose 2.00 uM), −0.990 log2 fold change; in the test with ENR+CD organoids (dose 10.00 uM) it was −1.148 log2 fold change. Moreover, the Z.CTG in the test on ENR+CD organoids (dose 0.08 uM) is reported as −2.276; in the test on ENR+CD organoids (dose 0.40 uM), −3.923; with ENR+CD organoids (dose 2.00 uM), −2.364; in the test with ENR+CD organoids (dose 10.00 uM), −2.742. In addition, the Dose.FC.LYZ.NS in test [1] (primary screen, dose 0.08 uM) is given as −0.108 log2 fold change; in test [1] (primary screen, dose 0.40 uM) it was −0.076 log2 fold change; in test [1] (primary screen, dose 2.00 uM), −0.063 log2 fold change; in test [1] (primary screen, dose 10.00 uM), −0.035 log2 fold change. Moreover, the Z.LYZ.NS is reported as −0.937 in test [1] (setting [3]), −0.664 in test [1] (setting [4]), −0.546 in test [1] (setting [5]) and −0.308 in test [1] (setting [6]). In addition, the Dose.FC.LYZ.S in test [2] (dose 0.08 uM) is −0.179 log2 fold change; in test [2] (dose 0.40 uM), −0.159 log2 fold change; in test [2] (dose 2.00 uM) it was −0.180 log2 fold change; in test [2] (dose 10.00 uM) it was −0.149 log2 fold change.
Consider `CCCc1nc2c(C)cc(-c3nc4ccccc4n3C)cc2n1Cc1ccc(-c2ccccc2C(=O)O)cc1` [Telmisartan], for which the Dose.FC.CTG is reported as 0.134 log2 fold change in the test on ENR+CD organoids (setting [19]), 0.244 log2 fold change in the test on ENR+CD organoids (setting [20]), 0.064 log2 fold change with ENR+CD organoids (setting [21]) and 0.230 log2 fold change in the test with ENR+CD organoids (setting [22]). The Dose.FC.LYZ.NS in test [1] (setting [23]) is 0.139 log2 fold change; in test [1] (setting [24]), 0.129 log2 fold change; in test [1] (setting [25]), 0.057 log2 fold change; in test [1] (setting [26]), −0.007 log2 fold change. For the same molecule, the Z.LYZ.NS in test [1] (setting [11]) was 1.213; in test [1] (setting [12]) it was 1.124; in test [1] (setting [13]), 0.499; in test [1] (setting [14]), −0.060. In addition, the Dose.FC.LYZ.S in test [2] (setting [19]) is on record as 0.140 log2 fold change; in test [2] (setting [20]), 0.106 log2 fold change; in test [2] (setting [21]) it was 0.063 log2 fold change; in test [2] (setting [22]), −0.003 log2 fold change.
On to `COC(=O)C1=C(C#N)NC(C)=C(C(=O)OC(C)C)C1c1cccc([N+](=O)[O-])c1` (stereo not shown) [Nilvadipine], for which the Dose.FC.CTG is given as 0.206 log2 fold change in the test on ENR+CD organoids (setting [7]), 0.135 log2 fold change with ENR+CD organoids (setting [8]), 0.212 log2 fold change with ENR+CD organoids (setting [9]) and 0.192 log2 fold change with ENR+CD organoids (setting [10]). Further, the Z.LYZ.NS is given as 0.857 in test [1] (setting [11]), 0.034 in test [1] (setting [12]), 0.500 in test [1] (setting [13]) and 0.082 in test [1] (setting [14]). In addition, the Dose.FC.LYZ.NS in test [1] (setting [15]) was found to be 0.098 log2 fold change; in test [1] (setting [16]), 0.004 log2 fold change; in test [1] (setting [17]) it was 0.057 log2 fold change; in test [1] (setting [18]) it was 0.009 log2 fold change. Besides, the Dose.FC.LYZ.S was 0.088 log2 fold change in test [2] (setting [7]), 0.013 log2 fold change in test [2] (setting [8]), 0.071 log2 fold change in test [2] (setting [9]) and −0.008 log2 fold change in test [2] (setting [10]).
As to `O=C1C(=O)N(Cc2ccc(Cl)c(Cl)c2)c2ccccc21` [Apoptosis Activator 2], the Dose.FC.CTG with ENR+CD organoids (dose 0.08 uM) is on record as 0.304 log2 fold change; in the test with ENR+CD organoids (dose 0.40 uM), 0.262 log2 fold change; in the test on ENR+CD organoids (dose 2.00 uM), 0.082 log2 fold change; with ENR+CD organoids (dose 10.00 uM), −0.158 log2 fold change. Further, the “Z.CTG (standard z score)” value in the test with ENR+CD organoids (dose 0.08 uM) is on record as 0.725; in the test on ENR+CD organoids (dose 0.40 uM), 0.626; in the test with ENR+CD organoids (dose 2.00 uM), 0.195; in the test with ENR+CD organoids (dose 10.00 uM) it was −0.378. The Dose.FC.LYZ.NS in test [1] (primary screen, dose 0.08 uM) is on record as 0.149 log2 fold change; in test [1] (primary screen, dose 0.40 uM), 0.033 log2 fold change; in test [1] (primary screen, dose 2.00 uM) it was −0.006 log2 fold change; in test [1] (primary screen, dose 10.00 uM), −0.199 log2 fold change. Moreover, the “Z.LYZ.NS (standard z score)” value in test [1] (primary screen, dose 0.08 uM) was 1.302; in test [1] (primary screen, dose 0.40 uM), 0.290; in test [1] (primary screen, dose 2.00 uM) it was −0.049; in test [1] (primary screen, dose 10.00 uM), −1.734. Moreover, the Dose.FC.LYZ.S is listed as 0.132 log2 fold change in test [2] (dose 0.08 uM), 0.073 log2 fold change in test [2] (dose 0.40 uM), −0.009 log2 fold change in test [2] (dose 2.00 uM) and −0.252 log2 fold change in test [2] (dose 10.00 uM).
For the molecule `O=C(NC(Cc1cc(=O)[nH]c2ccccc12)C(=O)O)c1ccc(Cl)cc1` (stereo not shown) [Rebamipide], the Dose.FC.CTG in the test with ENR+CD organoids (setting [19]) was −0.256 log2 fold change; in the test with ENR+CD organoids (setting [20]) it was −0.510 log2 fold change; with ENR+CD organoids (setting [21]), −0.203 log2 fold change; in the test on ENR+CD organoids (setting [22]), −0.281 log2 fold change. In addition, the Dose.FC.LYZ.NS in test [1] (setting [23]) was 0.096 log2 fold change; in test [1] (setting [24]), −0.091 log2 fold change; in test [1] (setting [25]), −0.090 log2 fold change; in test [1] (setting [26]), −0.089 log2 fold change. The Z.LYZ.NS in test [1] (setting [11]) is reported as 0.832; in test [1] (setting [12]) it was −0.793; in test [1] (setting [13]), −0.780; in test [1] (setting [14]), −0.773. Besides, the Dose.FC.LYZ.S in test [2] (setting [19]) was −0.014 log2 fold change; in test [2] (setting [20]), 0.014 log2 fold change; in test [2] (setting [21]), −0.106 log2 fold change; in test [2] (setting [22]), −0.063 log2 fold change.

The values above are taken from patent publication US20220323406A1, “METHODS AND COMPOSITIONS FOR DIFFERENTIATING STEM CELLS” (Massachusetts Institute of Technology, priority 2019, published 2022).
